We go through 1 compound from US12630550B2, “Pharmacophore for trail induction” (THE SCRIPPS RESEARCH INSTITUTE, priority 2014, dated 2026).

The test system of the experiment is TRAIL mRNA expression. The following applies: RAW 264.7; doses as high as 10 μM or prolonged exposure.

Method: RAW 264.7 cells (ATCC TIB-71) were maintained in growth medium of Dulbecco's Modified Eagle's Medium (DMEM with 4.5 g/L glucose and pyruvate, Gibco BRL, Invitrogen Corp., USA) supplemented with L-glutamine, penicillin/streptomycin, non-essential amino acids (100× stocks, Invitrogen Corp.), 10 mM HEPES, pH 7.4 (1 M stock, Invitrogen), and 10% Fetal Bovine Serum (FBS, Hyclone); (V. V. Kravchenko, R. J. Ulevitch, G. F. Kaufmann, Methods Mol. Biol. 2011, 692, 133-145).
Cells were plated in 6-well plates (Corning Costar 3506) diluted 1:5 in 3 mL growth medium, media was changed after cells had adhered. After 12 h incubation, cells were treated with described concentration of compound in DMSO, and incubated in the presence of that compound or vehicle for the described amount of time. At this time, media was removed and cells were treated with TRIzol reagent (Life Technologies), and RNA extracted via included protocol. RNA concentration determined using a Hitachi U-2000 UV-Vis Spectrophotometer and samples diluted to 12 μg/5 μL in H2O. […]

On to `Cc1ccccc1CN1C2=NCCN2C(=O)C2=C1CCN(Cc1ccccc1)C2` [Compound 1, 7-Benzyl-10-(2-methylbenzyl)-2,6,7,8,9,10-hexahydroimidazo[1,2-a]pyrido[4,3-d]pyrimidin-5(3H)-one, reference compound], for which the “change in TRAIL mRNA expression over controls” value is on record as “No change in TRAIL mRNA expression over controls”.
